These results are taken from US9708372B2, “Agonistic autoantibodies to the alpha1-adrenergic receptor and the beta2-adrenergic receptor in Alzheimer's and vascular dementia” (E.R.D.E.-AAK-DIAGNOSTIK GMBH, priority 2011, dated 2017).

In assay [1] the test system is spontaneously contracting neonatal cardiomyocytes. Kind of assay: Cardiomyocyte contraction bioassay: chronotropic response to patient IgG after preincubation with receptor loop peptides. The class given is cell-based, rat. The settings on record: IgG from three AD/vascular dementia patients preincubated 1 hour at 4° C. with 1 μg peptide per 1 μg IgG protein. How it is done: Cultures of neonatal cardiomyocytes were prepared from new-born, one to three days old rats essentially as described in [15]. Chinese hamster ovary cells stably transfected with the A-isoform of the human α1-AR (CHO-α1) were grown in F12 HAM medium supplemented with glutamine, 10% FCS and 1% penicillin streptomycin at 37° C. and 5% CO2.
Functional autoantibodies were detected utilizing the chronotropic responses of cultivated spontaneously contracting neonatal cardiomyocytes. For monitoring the contraction rate of neonatal cardiomyocytes a standardized bioassay based on computer-assisted recording of the contraction rate was employed.
Immunoglobulin (IgG) fractions from serum samples were prepared according to a standard procedure as described in [6]. Patients IgG were added to cultures of neonatal cardiomyocytes to a final dilution of 1:40. After incubation at 37° C. for 60 minutes, the pulsation rate was measured. A total of up to 30 cells or cell clusters for each sample of a given immunoglobulin fraction was analysed. The chronotropic response to the exposition to patient IgG compared to preceding control recordings is given as increases in the number of contractions per minute. Identification of the target GPCR type was performed using specific receptor antagonists, 10^-7 M prazosin to block the α1-AR and 10^-7 M ICI […] for the β2-AR.
For mapping of the target site of agonistic autoantibodies on the receptor, IgG fractions were preincubated for 1 hour at 4° C. with an excess of synthetic peptides corresponding to amino acid sequences of the extracellular loop1 (LGYWAFGRVFCN) or the extracellular loop2 (PAPEDETICQINEE) of the human α1-AR (1 μg peptide per 1 μg IgG protein).

The target of assay [2] is patient IgG (agAAB to the α1-AR). The assay can be described thus: ELISA competition of patient IgG binding to the immobilized peptide by free α1-AR loop1 peptide. Also noted: species or system human. The following applies: free peptide 0.3 nM up to 5 μM, patient IgG preincubated with free peptide 15 minutes, nonlinear regression, read-out: EC50 value, competition of IgG binding to the immobilized peptide by soluble α1-AR loop 1 peptide. As for the experimental part: Shown are data from representative experiments run in triplicates. Values are corrected for unspecific binding. A: Dependence of antibody binding on patient IgG protein. The given amount of IgG protein refers to 100 μl reaction volume (□) binding in the presence of 0.15 M NaCl; (●) binding in the presence of 0.5 M NaCl. B: Time-dependence of antibody binding. C: Competition of binding by increasing concentrations of the free α1-AR loop1 peptide. Concentrations of the free peptide ranged from 0.3 nM to 5.0 μM. The patient IgG was preincubated with the free peptide in solution for 15 minutes.
The binding of agonistic IgG preparations was characterized using standard ELISA techniques. Briefly, biotinylated peptides corresponding to either the first or the second extracellular loop of the human α1A-AR were coupled to pre-blocked streptavidin-coated 96-well plates (Pierce). All experimental steps were performed at room temperature. If not indicated otherwise, 5 μg of IgG protein was used and the incubation time was 30 minutes. As secondary antibody anti-human horseradish conjugated anti-IgG was used. The antibody binding was visualized by the 1-Step Ultra TMB ELISA (Thermo Scientific). The optical density was quantified at 450 nm using a SLT Spectra multiplate reader (TECAN).
On the technique in general: ELISA stands for enzyme-linked immunosorbent assay.

The target of assay [3] is T1, A-isoform of the human α1-AR (CHO-α1) (Homo sapiens, UniProt P35348).
T1 construct: expressed in transfected cells; host or cells: CHO (Chinese hamster ovary) cells, stably transfected
T1 sequence (P35348 1-466): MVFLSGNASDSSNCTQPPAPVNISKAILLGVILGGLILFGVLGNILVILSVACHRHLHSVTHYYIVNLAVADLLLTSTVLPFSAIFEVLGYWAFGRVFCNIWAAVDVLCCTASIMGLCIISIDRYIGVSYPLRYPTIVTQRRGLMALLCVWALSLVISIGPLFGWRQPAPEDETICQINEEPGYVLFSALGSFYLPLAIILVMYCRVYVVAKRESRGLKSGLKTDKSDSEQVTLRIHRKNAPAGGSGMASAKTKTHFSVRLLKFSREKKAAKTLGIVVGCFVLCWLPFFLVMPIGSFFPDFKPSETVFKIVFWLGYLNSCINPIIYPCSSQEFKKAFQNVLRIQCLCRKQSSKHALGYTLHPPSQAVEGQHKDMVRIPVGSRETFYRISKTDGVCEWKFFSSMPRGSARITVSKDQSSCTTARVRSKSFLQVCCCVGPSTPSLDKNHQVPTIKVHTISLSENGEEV
The assay can be described thus: Intracellular calcium (Cai) mobilization in CHO-α1 cells. Format: cell-based. How it is done: The data represent mean values of independent measurements of three individual cell populations. A: Time dependence of Cai mobilization by patient IgG compared to the α1-AR agonist phenylephrine (PE). The addition of patient IgG preparation and PE is indicated by the arrow. The additions were (▴) 2.5 μg patient IgG; (▪) 5 μg patient IgG; (●) 5 μM PE. B: Effect of 5 μg human control IgG (Δ) and 5 μg patient IgG (♦) on Cai mobilization. The addition of IgG preparations is indicated by the arrow. C: Inhibitory effect of preincubation of patient IgG with the free α1-AR loop1 peptide. Patient IgG was preincubated with 0.25 μM peptide for 15 minutes before addition to the cells. Peak values (five of each individual measurement) were taken for assessing the decrement in Cai mobilization. […]
The potential of patients IgG fractions to mobilise intracellular calcium (Cai) was assessed using Chinese hamster ovary cells stably transfected with the A-isoform of the human α1-AR (CHO-α1). The cells were trypsinized and plated on black clear bottom 96-well plates suited for fluorescence measurements (Greiner) at a density of 30 000 cells per well. […] Cai was measured on a Perkin Elmer Victor X2 fluorescence multiplate reader equipped with an injector unit. The cells were excited at wave lengths alternating between 340 nm and 380 nm and the fluorescence signal emitted at 510 nm was recorded. […]
(In general: A change in cytosolic calcium serves as a functional read-out for many receptors and channels.)

Read-outs that look alike come from different tables or passages of the source.

For orientation: EC50 means the concentration at which the effect is half-maximal. As to “LGYWAFGRVFCN [loop1 peptide, synthetic peptide corresponding to extracellular loop1 of the human α1-AR]”, the “Effect of peptide preincubation on chronotropic response to patient IgG” value in assay [1] is “nearly abolished”; in assay [1] (listed as L1 peptide), “abolished”. The EC50 in assay [2] (listed as extracellular loop1 peptide) is 0.03 µM; in assay [2] (listed as α1-AR loop 1 peptide), ~0.03 µM. Moreover, the “Effect of the peptide itself on Cai” value in assay [3] (CHO-α1 cells, peptide alone) is “no effect”. Further, the “Effect of peptide preincubation on elevation of Cai by patient IgG” value in assay [3] (patient IgG preincubated with 0.25 μM peptide for 15 minutes, p<0.01) is “reduced significantly”.

As to “PAPEDETICQINEE (listed as Homo sapiens) [loop2 peptide, synthetic peptide corresponding to extracellular loop2 of the human α1-AR]”, the “Effect of peptide preincubation on chronotropic response to patient IgG” value in assay [1] was “did not affect”.
